In patent EP0998946A1, “Non-porphyrin compound for use as a diagnosticum and/or pharmaceutical” (K.U. LEUVEN RESEARCH & DEVELOPMENT, priority 1998, dated 2000):

Legend:
[1] = test system: Reperfused hepatic infarction in rats; assay: MRI contrast enhancement, reperfused hepatic infarction in rats; type: in vivo, Wistar rats
[2] = test system: Acute myocardial infarction; assay: MRI contrast enhancement, reperfused myocardial infarction in rabbits; type: in vivo, New Zealand rabbits; settings: rabbit heart, 18 hours after IV injection at 0.05 mmol/kg, T1-w spin echo
[3] = test system: rats; assay: Acute lethal toxicity (LD50) in rats; settings: 5.0 mmol/kg
[4] = test system: mice; assay: Acute lethal toxicity (LD50) in mice
[5] = test system: Acute myocardial infarction; assay: MRI contrast enhancement, acute reperfused myocardial infarction in dogs; type: in vivo, Mongrel dogs; settings: dog
[6] = test system: reperfused hepatic infarction; assay: Scintigraphic imaging and infarction to normal tissue radioactivity ratio; type: in vivo, rat; settings: 74 MBq
Experimental: Two effective and reproducible animal models have been induced and used in the in vivo assessment of newly synthesized agents. • 1. Reperfused hepatic infarction in rats: adult Wistar rats weighing about 350 grams were anesthetized with intraperitoneal injection of pentobarbital (Nembutal®, 40 mg/kg, Sanofi Sante Animale, B-1130 Brussels, Belgium). Under laparotomy, reperfused hepatic infarction was induced by temporarily clamping the hilum of the right liver lobes for 3 hours. The abdominal cavity was then closed and the rats were allowed to recover from surgery. • 2. Acute myocardial infarction in rabbits and dogs: under general anesthesia with Nembutal® at 6 mg/kg/h and intubated ventilation, adult New Zealand rabbits of 3 kg or Mongrel dogs of 20 kg underwent open-chest surgery through the seventh intercostal space. The left anterior descending (LAD) or circumflex (Cx) branch of the coronary artery was encircled and occluded with a snare-occluder for 150 minutes and reopened by losing the occluder to induce irreversible reperfused AMI. The thoracic cavity was closed by layers with the free air expelled.
[…] This animal was prepared as described above. Scintigraphic images were acquired during 1 to 5 minutes at regular time intervals up to 24 h after injection, using a Triad-gamma camera equipped with an ultra-high resolution parallel collimator.
After sacrificing the animal, organs were isolated and necrotic and viable liver parts were separated and weighed. Their 99m Tc radioactivity was measured using a sodium iodine scintillation detector coupled to a multichannel analyzer. The activity per gram tissue was a factor of 3.2 higher in necrotic liver tissue as compared to normal liver tissue.
This imaging result has been confirmed by radioactivity counting with a factor of more than 3 between infarcted and normal liver tissues.

[7] = test system: necrotic liver; assay: Biodistribution: tissue Gd content by ICP-AES in rats; settings: Gadophrin-2 comparison
[8] = rat, 0.05 mmol/kg, T1 weighted spin echo

## CNC[C@H](O)[C@@H](O)[C@H](O)[C@H](O)CO.CNC[C@H](O)[C@@H](O)[C@H](O)[C@H](O)CO.O=C([O-])CN(CCN(CC(=O)[O-])CC(=O)O)CCN(CC(=O)[O-])CC(=O)O.[Gd+3] [Gd-DTPA, reference compound]
[1]; T1 weighted MRI, hepatic and myocardial infarcts, iv 0.05 mmol/kg (Gd-DTPA 0.1 mmol/kg), degree and duration equal to that with Gadophrin-2
  contrast enhancement of the lesions: only enhances nonspecifically the lesions at the early phase (<2h)

## N,N'-Bis(diethylenetriamino penta-acetato)-4,4'-methylene bis(3-hydroxy-2-naphthalene carboxylic hydrazide), Gd-complex, sodium salt [ECIII-60]
[2]
  enhancement of the transmural infarct: persistently enhanced
[3]
  No. Deaths/No. animals: 4/4
[4]; 2.15 mmol/kg
  No. Deaths/No. animals: 0/4
[4]; 5.0 mmol/kg
  No. Deaths/No. animals: 3/3
[1]; rat, 0.05 mmol/kg, 60 minutes after injection, T1 weighted spin echo
  signal intensity of infarcted liver versus normal liver: surpassed that of normal liver
[1]; [8]
  time at which the necrosis-to-normal contrast reached maximum: 24 h
  time until the enhancement of the necrosis became homogeneous: within a couple of hours
[5]; eighteen hours after contrast, 0.05 mmol/kg IV
  enhancement at the infarcted papillary muscle: extremely strong enhancement
[5]; ten minutes after IV injection at 0.05 mmol/kg, T1-w turbo-FLASH
  signals of blood pool and papillary muscle: strongly enhanced

## N,N'-Bis(diethylenetriamino penta-acetato)-4,4'-methylene bis(3-hydroxy-2-naphthalene carboxylic hydrazide), technetium-99m complex, sodium salt [Example 3]
[6]; rat with reperfused right liver lobe infarction, 24 hours after administration
  nuclear scintigraphy finding: hot spot caused by accumulation tracer in the necrotic liver lobe only
[6]; rat, 99mTc radioactivity of isolated liver parts after sacrifice
  activity per gram tissue, factor necrotic liver tissue versus normal liver tissue: 3.2
[6]; rat, images acquired 20 h after injection
  scintigraphic visualization of the infarcted region: Clear visualization of the infarcted region
[6]; rat, 24 hours after administration
  radioactivity counting, factor between infarcted and normal liver tissues: more than 3

## gadolinium mesoporphyrin [Gadophrin-2]
[7]
  Gadolinium content, proportion necrotic liver to normal liver: one-to-one
